The subject of assay [1] is Staphylococcus aureus. Kind of assay: Antibacterial activity against Staphylococcus aureus assessed as diameter of inhibition zone. It counts as functional.
The subject of assay [2] is Bacillus subtilis. Kind of assay: Antibacterial activity against Bacillus subtilis assessed as diameter of inhibition zone. It counts as functional.
Assay [3] concerns Escherichia coli. Kind of assay: Antibacterial activity against Escherichia coli assessed as diameter of inhibition zone. Format: functional.
Assay [4] relates to Salmonella typhimurium. The experiment in a line: Antibacterial activity against Salmonella typhimurium assessed as diameter of inhibition zone. It counts as functional, Salmonella enterica subsp. enterica serovar Typhimurium.
Assay [5] concerns Salmonella typhimurium. Kind of assay: Antibacterial activity against Salmonella typhimurium MTCC 98 assessed as bacterial growth inhibition by broth microdilution method. It counts as functional, Salmonella enterica subsp. enterica serovar Typhimurium. The following applies: Salmonella enterica. (Broth dilution looks for growth in wells or tubes with falling amounts of substance.)

In assay [6] the test system is Aspergillus ochraceus. The experiment in a line: Antifungal activity against Aspergillus ochraceus assessed as diameter of inhibition zone by disc diffusion method. It counts as functional. (In general: In agar diffusion tests the substance spreads into inoculated agar from a disc or well.)
Assay [7] concerns Penicillium chrysogenum. The experiment in a line: Antifungal activity against Penicillium chrysogenum assessed as diameter of inhibition zone by disc diffusion method. It counts as functional.
Assay [8] relates to Aspergillus ochraceus. Kind of assay: Antifungal activity against Aspergillus ochraceus AUCC-230 assessed as diameter of inhibition zone incubated for 24 hrs by disc diffusion method. It counts as functional.
Assay [9] concerns Penicillium chrysogenum. The experiment in a line: Antifungal activity against Penicillium chrysogenum AUCC-530 assessed as diameter of inhibition zone incubated for 24 hrs by disc diffusion method. Format: functional.
The test system of assay [10] is Staphylococcus aureus. Kind of assay: Antibacterial activity against Staphylococcus aureus NCIM 2654 assessed as diameter of inhibition zone incubated for 24 hrs by agar well diffusion method. It counts as functional.
The test system of assay [11] is Candida albicans. The experiment in a line: Antifungal activity against Candida albicans assessed as diameter of inhibition zone incubated for 48 hrs by agar well diffusion method. It counts as functional.
Assay [12] is described as follows: Antioxidant activity assessed as DPPH radical scavenging activity at 12 ug incubated for 30 mins by spectrophotometric analysis. Format: functional. The note with it: dose 12.0 µg. Background: DPPH is a stable violet radical that fades when it is reduced.
Assay [13] concerns Staphylococcus aureus. The experiment in a line: Antibacterial activity against Staphylococcus aureus MTCC 96 assessed as bacterial growth inhibition incubated for 24 hrs by broth microdilution method. Format: functional.
Assay [14] relates to Staphylococcus aureus. The experiment in a line: Antibacterial activity against Staphylococcus aureus MLS-16 MTCC 2940 assessed as bacterial growth inhibition incubated for 24 hrs by broth microdilution method. It counts as functional.
Assay [15] concerns the target T1, Free fatty acid receptor 3 (Homo sapiens, UniProt O14843).
T1 sequence (O14843 whole entry): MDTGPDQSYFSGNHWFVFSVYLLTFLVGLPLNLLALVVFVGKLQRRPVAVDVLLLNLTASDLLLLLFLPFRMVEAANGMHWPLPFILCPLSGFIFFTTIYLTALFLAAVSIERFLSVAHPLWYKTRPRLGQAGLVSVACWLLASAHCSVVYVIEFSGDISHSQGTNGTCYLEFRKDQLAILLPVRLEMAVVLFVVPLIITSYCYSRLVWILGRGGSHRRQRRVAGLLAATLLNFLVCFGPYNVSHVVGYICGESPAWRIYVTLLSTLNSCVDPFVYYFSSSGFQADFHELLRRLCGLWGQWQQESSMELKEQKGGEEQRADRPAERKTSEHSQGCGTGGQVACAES
Kind of assay: Agonist activity at FFA3 (unknown origin) expressed in human Flp-In-293 cells assessed as inhibition of forskolin-stimulated cAMP accumulation incubated for 30 mins by Lance cAMP assay. Format: cell-based.

Assay [16] deals with Hydroxycarboxylic acid receptor 2 (Homo sapiens, UniProt Q8TDS4). Kind of assay: Agonist activity at human HCA2 expressed in human Flp-In-293 cells assessed as inhibition of forskolin-stimulated cAMP accumulation incubated for 30 mins by Lance cAMP assay. It counts as cell-based.
Hydroxycarboxylic acid receptor 2, sequence (Q8TDS4 whole entry): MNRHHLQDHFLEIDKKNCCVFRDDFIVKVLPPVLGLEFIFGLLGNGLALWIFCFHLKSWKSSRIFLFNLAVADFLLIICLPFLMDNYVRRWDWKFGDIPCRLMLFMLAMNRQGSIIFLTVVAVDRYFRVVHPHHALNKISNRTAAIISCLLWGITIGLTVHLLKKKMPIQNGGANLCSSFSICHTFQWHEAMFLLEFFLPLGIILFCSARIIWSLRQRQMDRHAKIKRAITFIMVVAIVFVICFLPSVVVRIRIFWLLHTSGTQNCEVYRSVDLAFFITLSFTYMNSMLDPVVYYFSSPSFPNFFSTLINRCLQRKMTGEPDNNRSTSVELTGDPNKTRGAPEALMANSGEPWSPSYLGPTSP
In assay [17] the test system is HepG2. Kind of assay: Anticancer activity against human HepG2 cells assessed as reduction in cell viability incubated for 48 hrs by MTT assay. Format: functional, cell-based. The following applies: HepG2, 48 h.
Assay [18] concerns Escherichia coli. Kind of assay: Antibacterial activity against Escherichia coli ATCC 25922 assessed as diameter of inhibition zone at 50 mg/ml incubated for 24 hrs by paper disk diffusion method. Format: functional. The note with it: read-out: DIZ.
For assay [19], the system named is Plasmodium falciparum. Kind of assay: microbe, parasite or virus in culture.
Assay [20] relates to Clostridium tetani. The experiment in a line: Antibacterial activity against Clostridium tetani MTCC 449 assessed as bacterial growth inhibition by broth microdilution method. It counts as functional.
The subject of assay [21] is Aspergillus fumigatus. The experiment in a line: Antifungal activity against Aspergillus fumigatus MTCC 227 assessed as fungal growth inhibition by broth microdilution method. Format: functional.
The test system of assay [22] is Mycobacterium tuberculosis. The experiment in a line: Antitubercular activity against Mycobacterium tuberculosis H37Rv assessed as bacterial growth inhibition at 250 ug/ml. Format: functional.
For assay [23], the system named is Mycobacterium tuberculosis. Kind of assay: Antitubercular activity against Mycobacterium tuberculosis H37Rv assessed as bacterial growth inhibition at 100 ug/ml. It counts as functional.
In assay [24] the test system is MCF7. Kind of assay: cells. The following applies: Homo sapiens, MCF7, 48 h.
Assay [25] deals with Staphylococcus aureus. Kind of assay: Antibacterial activity against Staphylococcus aureus NCTC-7447 assessed as diameter of inhibition zone incubated for 24 hrs by disc diffusion method. Format: functional.
Assay [26] concerns Bacillus cereus. Kind of assay: Antibacterial activity against Bacillus cereus ATCC-14579 assessed as diameter of inhibition zone incubated for 24 hrs by disc diffusion method. It counts as functional.
Assay [27] deals with Serratia marcescens. The experiment in a line: Antibacterial activity against Serratia marcescens IMRU-70 assessed as diameter of inhibition zone incubated for 24 hrs by disc diffusion method. Format: functional.
For assay [28], the system named is Proteus mirabilis. The experiment in a line: Antibacterial activity against Proteus mirabilis NTCC-289 assessed as diameter of inhibition zone incubated for 24 hrs by disc diffusion method. Format: functional.

Experimental findings from ChEMBL document CHEMBL5241112, “Insights into the recent progress in the medicinal chemistry of pyranopyrimidine analogs” (RSC Med Chem, 2022) are described below.

In general, MIC refers to the lowest concentration that inhibits growth of the organism. In general, EC50 refers to the concentration that produces a half-maximal response. As a reminder, the IC50 is the midpoint of a concentration-inhibition curve. By inhibition is commonly meant the change of the read-out against control, counted positive when it falls.

Converted amounts (≈) assume the structure as drawn.

With `CCn1cc(C(=O)O)c(=O)c2cc(F)c(N3CCNCC3)cc21` [NORFLOXACIN], the “diameter of the inhibition zone (DIZ)” value in [1] was found to be 14 mm; in [2], 24 mm; in [3], 20 mm; in assay [4], 16 mm. Also, the MIC in assay [5] was 10 µg/mL (≈ 31.3 µM).

Regarding NYSTATIN, the inhibition zone (IZ) came to 22 mm in assay [6], 24 mm in [7], 22 mm in [8] and 24 mm in assay [9].

Turning to `Cc1n[nH]c2c1C(c1ccc(Cl)cc1)c1c([nH]c(=O)[nH]c1=O)O2` (stereo not given), the “diameter of the inhibition zone (DIZ)” value is listed as 27 mm in assay [10] and 18 mm in [11]. In addition, the Activity in assay [12] is 58.8%.

Take `Cc1cc2c(c(=O)o1)C(c1ccc(F)cc1)c1c(Nc3ccc([N+](=O)[O-])cc3)ncnc1O2` (stereo not given): the MIC in assay [13] is 7.8 µg/mL (≈ 17.5 µM); in assay [14], 15.6 µg/mL (≈ 34.9 µM).

`Cc1cc(=O)oc2[nH]c(=S)[nH]c(=O)c12`: the EC50 is 220 nM in assay [15] and 51 nM in assay [16].

For the compound `CCc1cc(=O)oc2[nH]c(=S)[nH]c(=O)c12`, the EC50 is 220 nM in assay [15] and 51 nM in [16].

Turning to `CCCCc1cc(=O)oc2[nH]c(=S)[nH]c(=O)c12`, the EC50 was determined as 220 nM in assay [15] and 51 nM in assay [16].

`COc1ccc(C2CC(=O)Oc3[nH]c(=O)[nH]c(=O)c32)cc1OC` (stereo not given): in assay [17], the IC50 worked out at 8900 nM.

On to `O=c1[nH]c(-c2ccccc2)nc2c1C(c1ccc(Cl)cc1)C=C(c1cc3ccccc3oc1=O)O2` (stereo not given), for which the zone of inhibition at 50000 µg/mL in assay [18] was 10 mm.

In assay [19], `C=C[C@H]1CN2CC[C@H]1C[C@H]2[C@H](O)c1ccnc2ccc(OC)cc12` [QUININE] showed an IC50 of 0.268 µg/mL (≈ 0.826 µM).

Regarding `CCOC(=O)C1=C(N)Oc2[nH]c(=S)[nH]c(=O)c2C1c1c(C)nn(-c2ccccc2)c1-n1ccnc1` (stereo not given), the MIC in assay [20] was determined as 100 µg/mL (≈ 203 µM); in assay [21], 200 µg/mL (≈ 407 µM). Also, the inhibition at 250 µg/mL in assay [22] was found to be 37%. In addition, in [23], the inhibition at 100 µg/mL was 30%. For the same compound, the IC50 in [19] was 0.97 µg/mL (≈ 1.97 µM).

In the case of `COc1cc(C2CC(=O)Oc3[nH]c(=O)[nH]c(=O)c32)ccc1O` (stereo not given), the IC50 was 10600 nM in [17] and 8900 nM in [24].

Consider `COc1ccc(C2CC(=O)Oc3[nH]c(=O)[nH]c(=O)c32)cc1O` (stereo not given), for which the IC50 in assay [17] was 8800 nM.

For the compound `CCOC(=O)c1nc2c3c(ncn2n1)Oc1c(c(=O)oc2ccccc12)C3c1ccc(Cl)cc1` (stereo not given), the “diameter of the inhibition zone (DIZ)” value in assay [25] worked out at 18 mm; in assay [26] it was 19 mm; in assay [27] it was 21 mm; in [28], 21 mm; in [8], 15 mm; in [9], 13 mm.

For `Cc1cc2c(c(=O)o1)C(c1ccccc1)c1c(Nc3ccc([N+](=O)[O-])cc3)ncnc1O2` (stereo not given), the values for the MIC in [13] and in [14] were 7.8 µg/mL (≈ 18.2 µM) and 15.6 µg/mL (≈ 36.4 µM), respectively.

`Cc1n[nH]c2c1C(c1ccc([N+](=O)[O-])cc1)c1c([nH]c(=O)[nH]c1=O)O2` (stereo not given): the “diameter of the inhibition zone (DIZ)” value in assay [10] came to 20 mm; in assay [11] it was 12 mm. In addition, in [12], the Activity came out at 98.4%.

As for `CCCc1cc(=O)oc2[nH]c(=S)[nH]c(=O)c12`, the results for the EC50 in assay [15] and in assay [16] were 220 nM and 51 nM, respectively.

On to `Cc1cc2c(c(=O)o1)C(c1ccccc1)c1c(Nc3ccc(Cl)cc3)ncnc1O2` (stereo not given), for which the MIC in [14] amounted to 15.6 µg/mL (≈ 37.3 µM).
